From ChEMBL document CHEMBL1121922, “Synthesis and pharmacological evaluation of a series of analogues of 1-methylisoguanosine” (1981)
Calls of active or inactive are those of the source. No cut-off for these calls is given here.

Columns and labels:
Mus musculus [1] = species: Mus musculus; assay: Effective peroral dose for muscle relaxation in mice; format: functional; conditions: po
Mus musculus [2] = species: Mus musculus; assay: Effective peroral dose hypothermic activity in mice; format: functional; conditions: po
Rattus norvegicus [3] = assay: Cardiovascular response in conscious hypertensive rats after administration of compound expressed as percent reduction in blood pressure; NA= No activity; format: functional, organism-based
Rattus norvegicus [4] = assay: Cardiovascular response in conscious hypertensive rats after administration of compound expressed as percent reduction in heart rate; NA= No activity; format: functional, organism-based
Rattus norvegicus [5] = assay: Antiallergic activity of 10 mg/kg intravenous dose of compound was assessed by the inhibition of passive paw anaphylaxis in rats; format: functional
Rattus norvegicus [6] = assay: Antiinflammatory activity of 100mg/Kg, po compound was assessed by inhibition of carrageenan-induced edema in rats; NA= No activity; format: functional, organism-based
Mus musculus [7] = species: Mus musculus; assay: Effective peroral dose for muscle relaxation in mice; 7.7-16.3; format: functional; conditions: po
Mus musculus [8] = species: Mus musculus; assay: Effective peroral dose hypothermic activity in mice; 6.3-18.7; format: functional; conditions: po
Rattus norvegicus [9] = assay: Cardiovascular response in conscious hypertensive rats after administration of compound expressed as percent reduction in blood pressure; format: functional
Rattus norvegicus [10] = assay: Antiallergic activity of compound (10 mg/kg, iv) was assessed by the inhibition of passive paw anaphylaxis in rats; format: functional
Rattus norvegicus [11] = assay: Cardiovascular response in conscious hypertensive rats after administration of compound expressed as percent reduction in heart rate; format: functional
Rattus norvegicus [12] = assay: Antiinflammatory activity of compound (25 mg/kg) was assessed by inhibition of carrageenan-induced edema in rats
Mus musculus [13] = species: Mus musculus; assay: Effective peroral dose for muscle relaxation in mice; 9.9-39.2; format: functional; conditions: po
Mus musculus [14] = species: Mus musculus; assay: Effective peroral dose hypothermic activity in mice; 2.2-71.9; format: functional; conditions: po
Rattus norvegicus [15] = assay: Antiinflammatory activity of compound (25 mg/kg) was assessed by inhibition of carrageenan-induced edema in rats; format: functional
Mus musculus [16] = species: Mus musculus; assay: Effective peroral dose hypothermic activity in mice; 16.6-26.9; format: functional; conditions: po
Rattus norvegicus [17] = assay: Antiinflammatory activity of 25mg/Kg, po compound was assessed by inhibition of carrageenan-induced edema in rats; NA= No activity; format: functional, organism-based
Mus musculus [18] = species: Mus musculus; assay: Effective peroral dose for muscle relaxation in mice; 24.7-35.2; format: functional; conditions: po
Rattus norvegicus [19] = assay: Antiallergic activity of 10 mg/kg intravenous dose of compound was assessed by the inhibition of passive paw anaphylaxis in rats; NA= No activity; format: functional, organism-based; parameters: dose 10 mg/kg; conditions: at 10 mg/kg
Rattus norvegicus [20] = assay: Antiallergic activity of compound (10 mg/kg, iv) was assessed by the inhibition of passive paw anaphylaxis in rats; NA= No activity; format: functional, organism-based
Rattus norvegicus [21] = assay: Antiinflammatory activity of compound (100 mg/kg) was assessed by inhibition of carrageenan-induced edema in rats; NA= No activity; format: functional, organism-based
Mus musculus [22] = species: Mus musculus; assay: Effective peroral dose for muscle relaxation in mice; 8.6-27.1; format: functional; conditions: po
Mus musculus [23] = species: Mus musculus; assay: Effective peroral dose hypothermic activity in mice; 7.5-20.7; format: functional; conditions: po
Rattus norvegicus [24] = assay: Antiinflammatory activity of compound (20 mg/kg) was assessed by inhibition of carrageenan-induced edema in rats; format: functional
Rattus norvegicus [25] = assay: Antiinflammatory activity of compound (50 mg/kg) was assessed by inhibition of carrageenan-induced edema in rats; format: functional
Rattus norvegicus [26] = assay: Antiallergic activity of compound (10mg/Kg, iv) was assessed by the inhibition of passive paw anaphylaxis in rats; NA= No activity; format: functional, organism-based
Rattus norvegicus [27] = assay: Antiinflammatory activity of 50mg/Kg, po compound was assessed by inhibition of carrageenan-induced edema in rats; no activity; format: functional

Compound | ED50 (Mus musculus [1]) | ED50 (Mus musculus [2]) | BP (Rattus norvegicus [3]) | HR (Rattus norvegicus [4]) | inhibition (Rattus norvegicus [6]) | BP (Rattus norvegicus [9]) | Inhibition (Rattus norvegicus [10]) | HR (Rattus norvegicus [11]) | other results
N=c1c2ncn(C3O[C@H](CO)[C@@H](O)[C@H]3O)c2[nH]c(=O)n1-c1ccccc1 (some centres not stated) | > 100 mg/kg | > 100 mg/kg | Not significant | inactive | inactive |  |  |  | inhibition in vivo at 10 mg/kg (Rattus norvegicus [5]): 30%
Cn1c(=O)[nH]c2c(ncn2C2O[C@H](CO)[C@@H](O)[C@H]2O)c1=N (some centres not stated) |  |  |  |  |  | -32% | 55% | -36% | ED50 (Mus musculus [7]): 11.2 mg/kg; ED50 (Mus musculus [8]): 10.9 mg/kg; Inhibition (Rattus norvegicus [12]): 62%
Cn1c(=O)[nH]c2c(ncn2C2O[C@H](COP(=O)(O)O)[C@@H](O)[C@H]2O)c1=N (some centres not stated) |  |  |  |  |  | -44% | 57% | -48% | ED50 (Mus musculus [13]): 19.7 mg/kg; ED50 (Mus musculus [14]): 12.6 mg/kg; Inhibition (Rattus norvegicus [15]): 46%
Cn1c(=O)[nH]c2c(ncn2C2O[C@@H]3COP(=O)(O)O[C@@H]3[C@@H]2O)c1=N (some centres not stated) |  |  |  |  |  | -17% |  | -37% | ED50 (Mus musculus [16]): 21.2 mg/kg; inhibition in vivo at 10 mg/kg (Rattus norvegicus [5]): 14%; inhibition (Rattus norvegicus [17]): inactive; ED50 (Mus musculus [18]): 29.5 mg/kg
Cn1c(=O)[nH]c2c(nc(NN)n2C2O[C@H](CO)[C@@H](O)[C@H]2O)c1=N (some centres not stated) | > 100 mg/kg | > 100 mg/kg |  |  | inactive | -13% |  | -21% | inhibition (Rattus norvegicus [19]): inactive
Cn1c(=O)[nH]c2c(nc(N)n2C2O[C@H](CO)[C@@H](O)[C@H]2O)c1=N (some centres not stated) | > 100 mg/kg | > 100 mg/kg |  |  | inactive | -10% |  | -20% | inhibition (Rattus norvegicus [19]): inactive
C[C@H]1OC(n2cnc3c(=N)n(C)c(=O)[nH]c32)[C@H](O)[C@@H]1O (some centres not stated) | > 100 mg/kg | > 100 mg/kg | Not significant | inactive | inactive |  |  |  | inhibition (Rattus norvegicus [19]): inactive
Cn1c(=O)[nH]c2c(nc(Br)n2C2O[C@H](CO)[C@@H](O)[C@H]2O)c1=N (some centres not stated) | > 100 mg/kg | > 100 mg/kg | Not significant | inactive |  |  |  |  | inhibition (Rattus norvegicus [20]): inactive; inhibition (Rattus norvegicus [21]): inactive
COc1nc(N)c2ncn([C@@H]3O[C@H](CO)[C@@H](O)[C@H]3O)c2n1 [BVT.115959] |  |  |  |  |  | -41% | 56% | -25% | ED50 (Mus musculus [22]): 15.3 mg/kg; ED50 (Mus musculus [23]): 12.5 mg/kg; Inhibition (Rattus norvegicus [24]): 25%; Inhibition (Rattus norvegicus [25]): 57%
CCCCn1c(=O)[nH]c2c(ncn2C2O[C@H](CO)[C@@H](O)[C@H]2O)c1=N (some centres not stated) | > 100 mg/kg | > 100 mg/kg |  |  | inactive | -7% |  | -16% | inhibition in vivo at 10 mg/kg (Rattus norvegicus [5]): 35%
Cn1c(=O)[nH]c2c(ncn2C2O[C@H](CI)[C@@H](O)[C@H]2O)c1=N (some centres not stated) | > 100 mg/kg | > 100 mg/kg | Not significant | inactive |  |  | 14% |  | inhibition (Rattus norvegicus [21]): inactive
Cn1c(=O)[nH]c2c(ncn2COCCO)c1=N | > 100 mg/kg | > 100 mg/kg | Not significant | inactive |  |  |  |  | inhibition (Rattus norvegicus [26]): inactive; inhibition (Rattus norvegicus [21]): inactive
Nc1nc(=O)[nH]c2c1ncn2[C@@H]1O[C@H](CO)[C@@H](O)[C@H]1O [ISOGUANOSINE] | > 100 mg/kg | > 100 mg/kg |  |  | inactive |  |  |  | 
CCn1c(=O)[nH]c2c(ncn2C2O[C@H](CO)[C@@H](O)[C@H]2O)c1=N (some centres not stated) | > 100 mg/kg | > 100 mg/kg |  |  |  | -18% | 40% | -27% | Inhibition (Rattus norvegicus [25]): 17%
Cn1c(N)c2nc([C@@H]3O[C@H](CO)[C@@H](O)[C@H]3O)nc-2[nH]c1=O | > 100 mg/kg | > 100 mg/kg |  | inactive | inactive | -9% |  |  | inhibition (Rattus norvegicus [19]): inactive
Cn1c(=O)[nH]c2c(ncn2C2O[C@H](CO)[C@@H](O)[C@@H]2O)c1=N (some centres not stated) | > 100 mg/kg | > 100 mg/kg | Not significant | inactive |  |  |  |  | inhibition (Rattus norvegicus [26]): inactive; inhibition (Rattus norvegicus [21]): inactive
CCCCCCCCn1c(=O)[nH]c2c(ncn2C2O[C@H](CO)[C@@H](O)[C@H]2O)c1=N (some centres not stated) | > 100 mg/kg | > 100 mg/kg | Not significant | inactive |  |  | 14% |  | inhibition (Rattus norvegicus [21]): inactive
Cn1c(=O)[nH]c2c(ncn2C2O[C@H](CO)[C@@H](O)[C@H]2O)c1=O (some centres not stated) | > 100 mg/kg | > 100 mg/kg | Not significant | inactive | inactive |  |  |  | inhibition (Rattus norvegicus [19]): inactive
Cn1c(=N)c2ncn3c2n(c1=O)C[C@H]1OC3[C@H](O)[C@@H]1O.I | > 100 mg/kg | > 100 mg/kg | Not significant | inactive |  |  |  |  | inhibition in vivo at 10 mg/kg (Rattus norvegicus [5]): 45%; inhibition in vivo at 50 mg/kg (Rattus norvegicus [27]): 21%
